Reference: PubChem BioAssay AID812 (SRMLSC, 2007)
The source made the active and inactive calls. How the calls were made is not given here.

These compounds were tested on Saccharomyces cerevisiae lifespan extension, no nicotinamide (assay: yeast lifespan extension without nicotinamide, confirmation, yeast lifespan extension project, S. cerevisiae (AID 812);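 further: growth read as optical density after 42 hours of incubation at 30C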).

| SMILES | EC50 |
| --- | --- |
| CSC1=NSC2=NC(=O)/C(=C\c3cccs3)C(=N)N12 | > 40 µM (inactive) |
| CCOc1ccccc1/C=c1\sc2ncnn2c1=O | > 40 µM (inactive) |
| Cc1cc(C=C2C(=O)N(C)C(=S)N(C)C2=O)c(C)n1-c1cccnc1 | > 40 µM (inactive) |
| O=C(c1c[nH]c(C(=O)C(Cl)(Cl)Cl)c1)c1ccccc1Cl | 7.18 µM |
| O=C(CSc1nc2ccccc2o1)c1cc2ccccc2oc1=O | > 40 µM (inactive) |
| COC(=O)C1=C(C(=O)OC)C(c2ccccc2O)c2sc(=O)[nH]c2S1 (centres undefined) | > 40 µM (inactive) |
| COc1ccc(-c2cc(N)n(S(=O)(=O)c3c(F)c(F)c(F)c(F)c3F)n2)cc1OC | 26.2 µM |
| COc1ccc(C(=O)C(CN2CCOCC2)c2ccccc2)cc1F (centres undefined) | > 40 µM (inactive) |
| Cc1c(O)c(S(=O)c2ccccc2)c(=O)n(-c2ccccc2)c1-c1ccccc1 (centres undefined) | > 40 µM (inactive) |
| CCOC(=O)C1C(=O)C(C(C)=O)C(=O)CC1CC(C)SCC (centres undefined) | > 40 µM (inactive) |
| C/C(=N\NC(=O)c1ccccc1O)c1c(O)cc(C)oc1=O | > 40 µM (inactive) |
| Cc1ccc(S(=O)(=O)C(C#N)c2nc3ccccc3nc2N2CCCC2)cc1 (centres undefined) | > 40 µM (inactive) |
| O=C(NC(=S)Nc1nc2c(s1)CSc1ccccc1-2)c1ccccc1 | > 40 µM (inactive) |
| O=C(Nc1nc2ccccc2n1CCN1CCOCC1)c1cn(-c2ccccc2)nc1-c1ccccc1 | > 40 µM (inactive) |
| CC1=CN2C(=N)/C(=C/c3ccc([N+](=O)[O-])o3)C(=O)N=C2S1 | > 40 µM (inactive) |
| O=C(c1cnn2c(C(F)F)cc(C3CC3)nc12)N1CCCC1 | > 40 µM (inactive) |
| CCCC[n+]1c(-c2ccc(Cl)cc2Cl)csc1Nc1ccccc1 | > 40 µM (inactive) |
| Cc1ccsc1C(=O)Nc1nnc(-c2ccco2)o1 | > 40 µM (inactive) |
| O=S1(=O)C=C(Sc2nnc(-c3ccccc3)o2)c2ccccc21 | > 40 µM (inactive) |
| CCc1ccc2nc(N3C(=O)C(O)=C(C(=O)c4ccco4)C3c3cccs3)sc2c1 (centres undefined) | > 40 µM (inactive) |
| COc1ccc(OC)c(NC(=S)N2CCN(C/C=C/c3ccccc3)CC2)c1 | > 40 µM (inactive) |
| CCN1CCCC1CNC(=O)COc1cc(=O)n(C)c2ccccc12 (centres undefined) | > 40 µM (inactive) |
| O=C(Nc1nccs1)c1ccc2c(=O)n3c(nc2c1)CCCCC3 | > 40 µM (inactive) |
| CCN1C(=O)C(=Cc2ccc(C)s2)C(=O)N(CC)C1=S | > 40 µM (inactive) |
| CCCC(=O)Nc1ccc(C(=O)NNC(=S)NC(=O)c2cccs2)cc1 | > 40 µM (inactive) |

| SMILES | EC50 |
| --- | --- |
| CCOC(=O)CC1=NN(c2ccccc2)C(=O)/C1=C\c1ccc(OC)cc1OC | > 40 µM (inactive) |
| O=C(COc1ccc2ccccc2c1)Nc1cccc(C(=O)Nc2ccccc2C(=O)O)c1 | > 40 µM (inactive) |
| N#Cc1ccc(-c2ccc(OCC(=O)NCCc3ccccc3)cc2)cc1 | > 40 µM (inactive) |
| CCCn1[nH]cc(SC)c(=O)c1=O | > 40 µM (inactive) |
| CN(C)CC(C(=O)c1ccccc1)c1ccccc1 (centres undefined) | > 40 µM (inactive) |
| O=C1CC(c2ccccc2)CC(O)=C1C=NCCN1CCOCC1 (centres undefined) | > 40 µM (inactive) |
| Cc1ccc(/C=C2/C(=O)NC(=O)N(CCc3ccc(F)cc3)C2=O)o1 | > 40 µM (inactive) |
| CC(C)(C)OC(=O)[C@H]1[C@H](c2ccc([N+](=O)[O-])cc2)C2(C(=O)c3ccccc3C2=O)C2c3ccccc3C=NN21 (some centres undefined) | > 40 µM (inactive) |
| CCCC(=Nc1ccc(N)cc1)C1=C(O)C(C(=O)OC)C(C)(C)CC1=O (centres undefined) | > 40 µM (inactive) |
| COc1ccc(NCc2nc3ccccc3n2CCOc2ccccc2)cc1 | > 40 µM (inactive) |
| COCCCNC(CC(=O)Nc1ccc(OC)cc1OC)C(=O)O (centres undefined) | > 40 µM (inactive) |
| CN(C)C1(c2nnnn2CCOC(=O)Nc2ccc(Cl)cc2)CCCCC1 | > 40 µM (inactive) |
| O=C(/C=C(\O)c1ccc(Cl)cc1)C(=O)NNC(=O)C(O)(c1ccccc1)c1ccccc1 | > 40 µM (inactive) |
| CCC(=NCCc1c(C)[nH]c2ccc(C)cc12)C1=C(O)CC(c2ccccc2)CC1=O (centres undefined) | > 40 µM (inactive) |
| COC(=O)CSc1ncccc1-c1nc2ccccc2[nH]1 | > 40 µM (inactive) |
| CCC1CCCCN1S(=O)(=O)c1ccc(S(=O)(=O)N(Cc2cccs2)C2CC2)cc1 (centres undefined) | > 40 µM (inactive) |
| CCC1C/C(=C\c2cccnc2)C(=O)/C(=C/c2cccnc2)C1 (centres undefined) | > 40 µM (inactive) |
| O=S(=O)(Nc1nc2ccccc2nc1Cl)c1ccc2ccccc2c1 | > 40 µM (inactive) |
| CC(=O)Oc1ccccc1N1C(=O)c2ccc(C(=O)O)cc2C1=O | > 40 µM (inactive) |
| CN1C(=O)/C(=C/c2cccn2-c2ccc3ccccc3c2)C(=O)NC1=S | > 40 µM (inactive) |
| CCOc1ccc(C(=O)C(CN2CCOCC2)c2ccccc2)cc1 (centres undefined) | > 40 µM (inactive) |
| O=C(O)c1ccc(O)c(N2C(=O)Nc3ccccc3N2O)c1 | > 40 µM (inactive) |
| O=C1c2ccccc2-c2onc3c(Oc4ccccc4)cc(O)c1c23 | > 40 µM (inactive) |
| C=CCn1c(C)cc(C(=O)CSc2nc3ccccc3c(=O)[nH]2)c1C | > 40 µM (inactive) |
| COc1ccc2c3c(cccc13)C(=O)N(O)C2=O | > 40 µM (inactive) |

| SMILES | EC50 |
| --- | --- |
| CCCC(=Nc1ccccc1OC)C1=C(O)CC(c2ccccc2)CC1=O (centres undefined) | > 40 µM (inactive) |
| O=[N+]([O-])c1cc2oc3c(c2c(C=NCc2ccccc2)c1O)CCCC3 | > 40 µM (inactive) |
| Cc1ccc(-c2nc3ccc(Cl)cc3n2OC(=O)N(C)C)cc1 | > 40 µM (inactive) |
| COC(=O)/C(=C/c1cn(C)c2ccccc12)[N+](=O)[O-] | > 40 µM (inactive) |
| Cc1ccc(C)c(N2CCN(S(=O)(=O)c3c(C)noc3/C=C/N(C)C)CC2)c1 | > 40 µM (inactive) |
| CCCCCCN1CC(C(=O)OCC)C(=O)C1=O (centres undefined) | > 40 µM (inactive) |
| Cc1cc(C)nc(SCc2cc(=O)c(OC(=O)c3ccco3)co2)n1 | > 40 µM (inactive) |
| C=CCn1c(C)cc(C(=O)COc2ncnc3sccc23)c1C | > 40 µM (inactive) |
| CC(C)C(OC(=O)CN1C(=O)COc2ccccc21)C(=O)NC1CCCC1 (centres undefined) | > 40 µM (inactive) |
| COc1ccc(O)c(C(=O)c2cc(C#N)c(=O)n(CC3CCCO3)c2)c1 (centres undefined) | > 40 µM (inactive) |
| O=C1c2ccccc2NC(c2cnc3ccccc3n2)N1O (centres undefined) | > 40 µM (inactive) |
| CN=C(SCc1cc2c(cc1Cl)OCO2)c1c(O)n(C)c(=O)n(C)c1=O | > 40 µM (inactive) |
| O=C(/C(=C/c1ccccc1)n1cncn1)c1ccc(Cl)cc1Cl | > 40 µM (inactive) |
| COCCCNc1c2c3c(cccc3[nH]c1=O)C(=O)c1ccccc1-2 | > 40 µM (inactive) |
| Cc1ccccc1Oc1cc(-n2ncc(Cl)c(Cl)c2=O)ncn1 | > 40 µM (inactive) |
| COC(=O)c1sc(S(=O)(=O)Nc2ccc(Br)cc2)c(C(=O)OC)c1C | > 40 µM (inactive) |
| CC[n+]1ccc(C[n+]2ccccc2)c2ccccc21 | > 40 µM (inactive) |
| COc1ccc(CCN2C(=O)C(O)=C(C(=O)c3ccco3)C2c2cccs2)cc1OC (centres undefined) | > 40 µM (inactive) |
| CCCCCCCCn1c(=O)c(C(=O)OCC)c(O)c2ccccc21 | > 40 µM (inactive) |
| COc1ccccc1CN(Cc1nc2ccccc2c(=O)[nH]1)C(=O)Nc1cccc(C)c1 | > 40 µM (inactive) |
| COc1ccccc1-c1c(C)oc2cc(OC(=O)c3ccco3)ccc2c1=O | > 40 µM (inactive) |
| COC(=O)C1=C(C(=O)OC)C(c2cc(Br)ccc2O)c2sc(=O)[nH]c2S1 (centres undefined) | > 40 µM (inactive) |
| CCc1ccc2c(c1)CCCN2C(=O)c1ccccc1C(=O)O | > 40 µM (inactive) |
| Cc1cccc(N2C(=O)C(Oc3ccc(Cl)cc3Cl)C2C=O)c1C (centres undefined) | > 40 µM (inactive) |
| CCn1c(/C=N/c2nc3ccccc3n2C)nc2ccccc21 | > 40 µM (inactive) |

| SMILES | EC50 |
| --- | --- |
| CCOC(=O)C1CCN(C(c2cc3ccc(C)c(C)c3[nH]c2=O)c2nnnn2C2CCCCC2)CC1 (centres undefined) | > 40 µM (inactive) |
| Oc1ccc2ccccc2c1C=Nc1ccccc1-c1nc2ccccc2[nH]1 | > 40 µM (inactive) |
| O=c1c2ccccc2nc(-c2cccc(Cl)c2)n1O | > 40 µM (inactive) |
| Cc1cc(C)c(S(=O)(=O)c2ccccc2)c(OC(=O)c2ccc(Cl)cc2Cl)n1 | > 40 µM (inactive) |
| COCCN(CCOC)S(=O)(=O)c1ccc(C(=O)Nc2sc3c(c2C(N)=O)CCCCC3)cc1 | > 40 µM (inactive) |
| COc1cc(/C=C/C(=O)C2C(=O)C=C(C)OC2=O)cc(OC)c1O (centres undefined) | > 40 µM (inactive) |
| CCCCn1c(=O)c2c(O)cc(=O)oc2c2ccccc21 | > 40 µM (inactive) |
| O=C(Nc1cccc(Cl)c1)c1ccc2c(=O)n3c(nc2c1)CCCCC3 | > 40 µM (inactive) |
| COc1cccc(/C=C2\C(=O)N(c3cccc(C)c3)C(=O)c3ccccc32)c1 | > 40 µM (inactive) |
| CCCCSc1[nH]c(=O)c(C(=O)OCC)cc1C#N | > 40 µM (inactive) |
| c1cncc(-c2nn[nH]n2)c1 | > 40 µM (inactive) |
| CCOC(=O)c1c(C)oc2c1c(C(c1cccnc1)N1CCOCC1)c(O)c1ccccc12 (centres undefined) | > 40 µM (inactive) |
| Cc1ccc2[nH]c(=O)c(CN(CCO)Cc3nnnn3CCc3ccccc3)cc2c1 | > 40 µM (inactive) |
| N#Cc1cc(C(=O)c2cc(F)ccc2O)cn(-c2nccs2)c1=O | > 40 µM (inactive) |
| O=C1c2ccccc2C(=O)N1Cc1nc2ccccc2c(=O)n1-c1ccc(Br)cn1 | > 40 µM (inactive) |
| N#C/C(=C\c1ccccc1)C(=O)N(c1ccccn1)C1CCCCC1 | > 40 µM (inactive) |
| CCCCC(=O)Nc1ccc(C(=O)NNC(=S)NC(=O)c2cccs2)cc1 | > 40 µM (inactive) |
| CC1CC(C)CN(S(=O)(=O)c2cccc(C(=O)N3C(=O)c4cccc(N)c4C3=O)c2)C1 (centres undefined) | > 40 µM (inactive) |
| CN1CCN(CC(=O)Nc2ccc(Cl)cc2Cl)CC1 | > 40 µM (inactive) |
| O=C(Nc1cccnc1)c1c(O)c2cccc3c2n(c1=O)CC3 | > 40 µM (inactive) |
| O=Cc1ccccc1OS(=O)(=O)c1ccccc1 | > 40 µM (inactive) |
| CC[n+]1c(/C=C2\C=C(C)CC(C)(C)C2)sc2ccccc21 | > 40 µM (inactive) |
| CCOC(=O)CS(=O)(=O)c1nc(-c2ccc(F)cc2)cc(C(F)(F)F)n1 | > 40 µM (inactive) |
| CCOC(=O)CSC1=NC(=O)/C(=C/c2ccc(OC)cc2)S1 | > 40 µM (inactive) |
